{"source": "patent US20210213020A1", "about": "“METHODS AND PHARMACEUTICAL COMPOSITIONS FOR TREATING CANCER” (INSERM (INSTITUT NATIONAL DE LA SANTÉ ET DE LA RECHIRCHE …, priority 2018, published 2021)", "key": {"[1]": {"system": "HT29 human colorectal carcinoma cell line", "assay": "Cytotoxicity (cell growth inhibition) in vitro, 72 h exposure, HT29", "assay_type": "cell-based", "conditions": "HT-29, 72 hour-incubation, FA 20 μmol/L and/or PLP 160 μmol/L where present, read-out: IC50 in μmol/L of FUra (95% CI)", "protocol": "(§1) The human colorectal carcinoma cell lines HT29, and HCT116 and the murine L1210 lymphocytic leukemia were thawed from mycoplasma-free frozen stocks and were controlled for contamination. Cells were grown in customized DMEM cell culture medium without any B6-vitamer (Gibco; Life Technologies) supplemented with 10% FBS and antibiotics (streptomycin, 50 μg/ml, and penicillin, 50 U/ml) at 37° C. in an atmosphere containing 5% CO2.\n(§2) Cancer cells were exposed in 12 well-cell plates to FUra in various concentrations under four conditions; either as a single agent [FUra]; in combination with [6R,S]-folinic acid (20 μmon) [FUra-FA]; in combination with PLP (160 μmon; Sigma-Aldrich) [FUra-PLP]; and with both agents [6R,S]-folinic acid (20 μmon), and PLP (160 μmon) together [FUra-AF-PLP]. Cells were harvested 72 hours from start of the exposure. Cell viability was measured with the Trypan Blue dye exclusion test in Malassez chambers or by flow cytometry. For the latter method, living cells defined by light double scatter were counted in a BD Accuri C6 flow cytometer (BD Biosciences). Experiments were in duplicate.\n(§3) Growth inhibition data obtained with FUra as a single agent [FUra], FUra with folinic acid [FUra-FA], FUra with PLP [FUra-PLP], and FUra with both folinic acid and PLP combined [FUra-FA-PLP] were studied according to the Median Effect principle for concentration-effect analysis. […]"}, "[2]": {"system": "HCT116 human colorectal carcinoma cell line", "assay": "Cytotoxicity (cell growth inhibition) in vitro, 72 h exposure, HCT116", "assay_type": "cell-based", "conditions": "HCT-116, 72 hour-incubation, FA 20 μmol/L and/or PLP 160 μmol/L where present, read-out: IC50 in μmol/L of FUra (95% CI)", "protocol": "as §1, §2, §3"}, "[3]": {"system": "L1210 murine lymphocytic leukemia", "assay": "Cytotoxicity (cell growth inhibition) in vitro, 72 h exposure, L1210", "assay_type": "cell-based", "conditions": "Mus musculus, 72 hour-incubation, FA 20 μmol/L and/or PLP 160 μmol/L where present, read-out: IC50 in μmol/L of FUra (95% CI)", "protocol": "as §1, §2, §3"}, "[4]": {"system": "Cancer cells", "assay": "Cytotoxic properties per se of folinic acid and PLP", "assay_type": "cell-based", "conditions": "in concentrations used in the present experiment (folinic acid 20, PLP 160 μmon)", "protocol": "as §2"}, "[5]": {"biological_target": "purified rabbit liver SHMT", "conditions": "read-out: Kd of SHMT for PLP; cited from earlier work"}, "[6]": {"biological_target": "T1, Human recombinant cytoplasmic cSHMT (Homo sapiens, UniProt P34896)", "T1 sequence (P34896 1-483)": "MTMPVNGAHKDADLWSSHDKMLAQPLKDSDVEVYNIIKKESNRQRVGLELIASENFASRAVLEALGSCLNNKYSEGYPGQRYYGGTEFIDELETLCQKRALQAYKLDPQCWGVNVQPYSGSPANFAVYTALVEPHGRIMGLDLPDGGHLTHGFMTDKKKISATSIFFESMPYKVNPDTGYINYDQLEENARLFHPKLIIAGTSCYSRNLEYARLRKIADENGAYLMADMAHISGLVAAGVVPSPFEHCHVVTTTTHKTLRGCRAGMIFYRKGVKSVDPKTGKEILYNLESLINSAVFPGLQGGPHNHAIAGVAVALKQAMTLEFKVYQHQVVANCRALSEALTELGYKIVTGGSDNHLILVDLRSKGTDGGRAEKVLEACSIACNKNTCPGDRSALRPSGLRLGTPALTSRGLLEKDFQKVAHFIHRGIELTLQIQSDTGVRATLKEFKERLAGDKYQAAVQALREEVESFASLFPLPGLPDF", "conditions": "human recombinant cytoplasmic cSHMT (ref 22); read-out: Kd of SHMT for PLP; cited from earlier work"}, "[7]": {"biological_target": "T2, human recombinant SHMT1 (Homo sapiens, UniProt P34896)", "T2 sequence (P34896 1-483)": "T1 sequence (P34896 1-483)", "conditions": "human recombinant SHMT1 (ref 23); read-out: Kd of SHMT for PLP; cited from earlier work"}, "[8]": {"biological_target": "T3, human recombinant SHMT2 (Homo sapiens, UniProt P34897)", "T3 sequence (P34897 30-504)": "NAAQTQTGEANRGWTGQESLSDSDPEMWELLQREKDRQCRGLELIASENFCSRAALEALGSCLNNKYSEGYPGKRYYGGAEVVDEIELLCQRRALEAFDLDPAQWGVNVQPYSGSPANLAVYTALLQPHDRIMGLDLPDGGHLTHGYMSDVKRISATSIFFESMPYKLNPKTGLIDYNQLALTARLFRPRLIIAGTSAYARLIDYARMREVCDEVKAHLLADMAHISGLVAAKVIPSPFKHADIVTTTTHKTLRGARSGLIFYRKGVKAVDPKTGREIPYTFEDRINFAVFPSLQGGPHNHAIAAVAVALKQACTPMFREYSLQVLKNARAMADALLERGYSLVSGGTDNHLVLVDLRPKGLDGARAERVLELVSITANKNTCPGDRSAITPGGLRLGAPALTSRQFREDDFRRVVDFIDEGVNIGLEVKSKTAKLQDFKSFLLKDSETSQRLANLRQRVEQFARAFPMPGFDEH", "conditions": "human recombinant SHMT2 (ref 23); read-out: Kd of SHMT for PLP; cited from earlier work"}, "[9]": {"conditions": "female, Balb/C, mouse, in vivo; for Time by which erythrocyte PLP levels approach baseline concentrations after injection: ip", "source_text": "Blood was collected in heparin. Measurements of B6 vitamers were done by HPLC.28"}, "[10]": {"conditions": "mice, one or two injections of PM at 150 or 450 mg/kg"}}}
{"compound": "O=c1[nH]cc(F)c(=O)[nH]1", "note": "[FUra, 5-fluorouracil]", "values": [{"measurement": "IC50", "setting": "[1]", "result": 1.18, "unit": "µmol/L"}, {"measurement": "IC50", "setting": "[2]", "result": 1.31, "unit": "µmol/L"}, {"measurement": "IC50", "setting": "[3]", "result": 0.47, "unit": "µmol/L"}]}
{"compound": "Cc1ncc(COP(=O)(O)O)c(C=O)c1O", "note": "[PLP, pyridoxal 5′-phosphate]", "values": [{"measurement": "Cytotoxic properties per se", "setting": "[4]", "result": "neither folinic acid nor PLP carry cytotoxic properties per se"}, {"measurement": "Kd", "setting": "[5]", "result": 700, "unit": "nM"}, {"measurement": "Kd", "setting": "[6]", "result": 850, "unit": "nM"}, {"measurement": "Kd", "setting": "[7]", "result": 250, "unit": "nM"}, {"measurement": "Kd", "setting": "[8]", "result": 440, "unit": "nM"}]}
{"compound": "Cc1ncc(CO)c(CN)c1O", "note": "[PM, pyridoxamine]", "values": [{"measurement": "Peak erythrocyte PLP concentration, 450 mg/kg versus 150 mg/kg", "setting": "[9]", "result": "about 6 fold"}, {"measurement": "Time by which erythrocyte PLP levels approach baseline concentrations after injection", "setting": "[9]", "result": "≤ 12", "unit": "h"}, {"measurement": "Signs of acute toxicity", "setting": "[10]", "result": "No signs of acute toxicity"}]}
{"compound": "Cc1ncc(CO)c(CO)c1O", "note": "[PN, pyridoxine, reference compound]", "values": [{"measurement": "Time by which erythrocyte PLP levels approach baseline concentrations after injection", "setting": "[9]", "result": "≤ 12", "unit": "h"}]}
{"compound": "Nc1nc2c(c(=O)[nH]1)N(C=O)C(CNc1ccc(C(=O)N[C@@H](CCC(=O)O)C(=O)O)cc1)CN2", "note": "(stereo partly shown) [folinic acid, N5-formyl tetra hydro pteroylglutamate, reference compound]", "values": [{"measurement": "Cytotoxic properties per se", "setting": "[4]", "result": "neither folinic acid nor PLP carry cytotoxic properties per se"}]}
